In brackets after ≈: the same amount, converted by molar mass. Where two headings read alike, the source gives them in different places.
How the values were obtained:
Type in all cases: cell-based
E. coli strains = assay: MIC against E. coli strains (Table M7); conditions: Escherichia coli, ATCC25922, E. coli ATCC 25922
Excerpt: (§1) We have collected MIC data for a total of 50 novel macrolides that this platform has produced against over 21 unique strains of B. subtilis, E. coli, S. aureus, S. pneumoniae, and H. influenzae, including several multidrug-resistant strains, with a special focus on macrolide resistant mechanisms (vide supra). Azithromycin was included as a control macrolide. CLSI standard procedures for broth dilution MIC determination were used. […] These genotypes can be constitutive or inducible. The finding that C4-epi (unnatural) isomers of the “azaketolide” macrolide class have enhanced activities relative to C4 natural isomers is very exciting.

A. baumannii strains = assay: MIC against A. baumannii strains (Table M8); conditions: Acinetobacter baumannii, BAA747, A. baumannii BAA747-1
H. influenzae strains = assay: MIC against H. influenzae strains (Table M8); conditions: for MIC: Haemophilus influenzae
Excerpt: as §1

S. pneumoniae strains = assay: MIC against S. pneumoniae strains (Tables M7, M8); conditions: for MIC: Streptococcus pneumoniae
Excerpt: CLSI standard procedures for broth dilution MIC determination were used. […] These genotypes can be constitutive or inducible.

K. pneumoniae strains = assay: MIC against K. pneumoniae strains (Table M8); conditions: for MIC: Klebsiella pneumoniae, K. pneumoniae 10031
S. aureus strains = assay: MIC against S. aureus strains (Table M7); conditions: Staphylococcus aureus
Excerpt: as §1

E. faecalis strains = assay: MIC against E. faecalis strains (Table M8); conditions: for MIC: Enterococcus faecalis, E. faecalis 29212
[1] = H. influenzae 49247, read-out: MIC H. influenzae (49247)
[2] = H. influenzae 49766, read-out: MIC H. influenzae (49766)
[3] = S. pneumoniae 160, read-out: MIC S. pneumonae (160)
[4] = S. pneumoniae 1509, read-out: MIC S. pneumoniae (1509)
[5] = S. pneumoniae 1533, read-out: MIC S. pneumoniae (1533)
[6] = S. pneumoniae 1537, read-out: MIC S. pneumoniae (1537)
[7] = S. pneumoniae 49619, read-out: MIC S. pneumoniae (49619)
[8] = ATCC29213, S. aureus ATCC 29213, read-out: MIC S. aureus (ATCC 29213)
[9] = S. aureus 183, read-out: MIC S. aureus (183)
[10] = S. aureus 506, read-out: MIC S. aureus (506)
[11] = S. aureus 1708, read-out: MIC S. aureus (1708)
[12] = USA300, S. aureus USA300, read-out: MIC S. aureus (USA300)

Row | SMILES | MIC (E. coli strains) | MIC (A. baumannii strains) | MIC (H. influenzae strains; [1]) | MIC (H. influenzae strains; [2]) | MIC (S. pneumoniae strains; [3]) | MIC (S. pneumoniae strains; [4]) | MIC (S. pneumoniae strains; [5]) | MIC (S. pneumoniae strains; [6]) | MIC (S. pneumoniae strains; [7]) | MIC (K. pneumoniae strains) | MIC (S. aureus strains; [8]) | MIC (S. aureus strains; [9]) | MIC (S. aureus strains; [10]) | MIC (S. aureus strains; [11]) | MIC (S. aureus strains; [12]) | MIC (E. faecalis strains) | MIC S. pneumoniae (49619) (S. pneumoniae strains; S. pneumoniae 49619) | further results
1 | CC[C@H]1OC(=O)[C@H](Cc2cncs2)C(=O)[C@H](C)[C@@H](O[C@@H]2OC(C)CC(N(C)C)C2O)[C@](C)(OC)C[C@@H](C)CN[C@H](C)[C@H]2N(CCCCn3cc(-c4cccc(N)c4)nn3)C(=O)O[C@]12C (stereo partly drawn) [FSM-56216] | 32 µg/mL (≈ 35.1 µM) | > 32 µg/mL | 4 µg/mL (≈ 4.39 µM) | 16 µg/mL (≈ 17.6 µM) | 2 µg/mL (≈ 2.19 µM) | 32 µg/mL (≈ 35.1 µM) | > 32 µg/mL | > 32 µg/mL | 1 µg/mL (≈ 1.1 µM) | 8 µg/mL (≈ 8.78 µM) | 32 µg/mL (≈ 35.1 µM) | > 32 µg/mL | > 32 µg/mL | 16 µg/mL (≈ 17.6 µM) | 32 µg/mL (≈ 35.1 µM) | 8 µg/mL (≈ 8.78 µM) |  | 
2 | C=CC[C@@]1(OC)C[C@@H](C)CN[C@H](C)[C@H]2N(CCCCn3cc(-c4cccc(N)c4)nn3)C(=O)O[C@]2(C)[C@@H](CC)OC(=O)[C@H](C)C(=O)[C@@H](C)[C@H]1O[C@@H]1OC(C)CC(N(C)C)C1O (stereo partly drawn) [FSM-21367] | 4 µg/mL (≈ 4.68 µM) | 16 µg/mL (≈ 18.7 µM) | 1 µg/mL (≈ 1.17 µM) | 4 µg/mL (≈ 4.68 µM) | 0.125 µg/mL (≈ 0.146 µM) | 8 µg/mL (≈ 9.37 µM) | > 32 µg/mL | > 32 µg/mL |  | 4 µg/mL (≈ 4.68 µM) | 8 µg/mL (≈ 9.37 µM) | > 32 µg/mL | > 32 µg/mL | 16 µg/mL (≈ 18.7 µM) | 8 µg/mL (≈ 9.37 µM) | 2 µg/mL (≈ 2.34 µM) | 0.25 µg/mL (≈ 0.293 µM) | 
3 | CC[C@H]1OC(=O)C(C)(F)C(=O)[C@H](C)[C@@H](O[C@@H]2OC(C)CC(N(C)C)C2O)[C@](C)(OC)CC(C)(F)CN[C@H](C)[C@H]2N(CCCCn3cc(-c4cccc(N)c4)nn3)C(=O)O[C@]12C (stereo partly drawn) [FSM-30704] | 32 µg/mL (≈ 37 µM) | > 32 µg/mL | 2 µg/mL (≈ 2.31 µM) | 8 µg/mL (≈ 9.26 µM) | 0.25 µg/mL (≈ 0.289 µM) | 1 µg/mL (≈ 1.16 µM) | > 32 µg/mL | > 32 µg/mL | 0.25 µg/mL (≈ 0.289 µM) | 16 µg/mL (≈ 18.5 µM) | 2 µg/mL (≈ 2.31 µM) | > 32 µg/mL | > 32 µg/mL | 2 µg/mL (≈ 2.31 µM) | 4 µg/mL (≈ 4.63 µM) | 0.5 µg/mL (≈ 0.579 µM) |  | 
4 | C=CC[C@@]1(OC)C[C@@H](C)CN[C@H](C)[C@H]2N(CCCCn3cc(-c4ccccn4)nn3)C(=O)O[C@]2(C)[C@@H](CC)OC(=O)[C@H](C)C(=O)[C@H](C)[C@H]1O[C@@H]1OC(C)CC(N(C)C)C1O (stereo partly drawn) [FSM-21423] | 32 µg/mL (≈ 38.1 µM) | > 32 µg/mL |  | 16 µg/mL (≈ 19 µM) |  | > 32 µg/mL | > 32 µg/mL | > 32 µg/mL |  |  | 16 µg/mL (≈ 19 µM) | > 32 µg/mL | > 32 µg/mL | 32 µg/mL (≈ 38.1 µM) | 16 µg/mL (≈ 19 µM) |  | 1 µg/mL (≈ 1.19 µM) | MIC H. influenzae (49247) (H. influenzae strains; H. influenzae 49247): 2 µg/mL (≈ 2.38 µM); MIC S. pneumonae (160) (S. pneumoniae strains; S. pneumoniae 160): 0.25 µg/mL (≈ 0.298 µM); MIC K. pneumoniae (10031) (K. pneumoniae strains): 8 µg/mL (≈ 9.52 µM); MIC E. faecalis (29212) (E. faecalis strains): 4 µg/mL (≈ 4.76 µM)
5 | CC[C@H]1OC(=O)[C@H](C)C(O)[C@H](C)[C@@H](O[C@@H]2OC(C)CC(N(C)C)C2O)[C@](C)(OC)C[C@@H](C)CN[C@H](C)[C@H]2N(CCCCn3cc(-c4cccc(N)c4)nn3)C(=O)O[C@]12C (stereo partly drawn) [FSM-21340] | 4 µg/mL (≈ 4.82 µM) | 8 µg/mL (≈ 9.64 µM) | 1 µg/mL (≈ 1.2 µM) | 4 µg/mL (≈ 4.82 µM) | 0.5 µg/mL (≈ 0.602 µM) | > 32 µg/mL | > 32 µg/mL | > 32 µg/mL | 0.5 µg/mL (≈ 0.602 µM) | 2 µg/mL (≈ 2.41 µM) | 16 µg/mL (≈ 19.3 µM) | > 32 µg/mL | > 32 µg/mL | > 32 µg/mL | 16 µg/mL (≈ 19.3 µM) | 8 µg/mL (≈ 9.64 µM) |  | 
6 | CC[C@H]1OC(=O)[C@H](C)C(=O)[C@H](C)[C@@H](O[C@@H]2OC(C)CC(N(C)C)C2O)[C@](C)(OC)C[C@@H](C)CN[C@H](Cc2cccc(Br)c2)[C@H]2N(CCCCn3cc(-c4cccc(N)c4)nn3)C(=O)O[C@]12C (stereo partly drawn) [FSM-60415] | > 32 µg/mL | > 32 µg/mL | 8 µg/mL (≈ 8.14 µM) | 32 µg/mL (≈ 32.6 µM) | 0.5 µg/mL (≈ 0.509 µM) | 4 µg/mL (≈ 4.07 µM) | 32 µg/mL (≈ 32.6 µM) | 32 µg/mL (≈ 32.6 µM) | 0.5 µg/mL (≈ 0.509 µM) | > 32 µg/mL | 2 µg/mL (≈ 2.03 µM) | > 32 µg/mL | > 32 µg/mL | 2 µg/mL (≈ 2.03 µM) | 2 µg/mL (≈ 2.03 µM) | 2 µg/mL (≈ 2.03 µM) |  | 

— patent US9982005B2, “Macrolides and methods of their preparation and use” (President and Fellows of Harvard College, priority 2013, dated 2018)
